Data taken from patent US20250145609A1, “3-SUBSTITUTED PYRIDAZINE COMPOUNDS AS SMARCA2 AND/OR SMARCA4 DEGRADERS” (Aurigene Oncology Limited, priority 2022, published 2025).

Key:
Format in all cases: cell-based
[1] = system: VCaP cells; assay: Anti proliferative activity in VCaP cell line by CellTiter Glo assay; settings: Homo sapiens; for EC50: VCaP, 192 h, 8 days incubation, CellTiter Glo luminescence
Method: Example-P1: Determination of Anti Proliferative Activity of Compounds in Cell Lines VCaP by Cell Titer Glo©(Promega) Assay
VCaP (ATCC CRL-2876) cells were seeded in 96 well plate flat black clear bottom plates (Corning, Cat. No 3904) using complete DMEM Medium. Next day, compounds listed in the present invention were added to cells from 10 mM stocks made in DMSO (Sigma Cat no. D2650). Each concentration of compound was tested in triplicate with DMSO concentration at a final percentage not exceeding 0.3 in the cells. After the incubation of VCaP cells with compound for 8 days assay was terminated using 50 μl of CellTiter Glo© reagent (Promega, Cat. no G7572). CellTiter-Glo® Luminescent reagent determines the number of viable cells based on quantitation of ATP present which is an indicator of cell number and metabolic activity. Luminescence readings were taken in Victor-3 instrument. Percent inhibition of proliferation was calculated using formula, % inhibition=100−(luminescence value of test/luminescence value of DMSO control)*100. DMSO control (0%)=Cells in complete media with DMSO; blank=Media alone containing DMSO. EC50 was calculated using graph pad prism software.
Herein the group “A” refers to EC50 values lower than l0 nM, group “B” refers to EC50 values between l0 nM-100 nM (both inclusive) and group “C” refers to EC50 values greater than 100 nM.

[2] = molecular target: T1, SMARCA4 (Homo sapiens, UniProt P51532); assay: SMARCA4 degradation in VCaP cells by Western blot; settings: at 100 nM; for Percent SMARCA4 degradation at 0.1 µM: VCaP, 16 h; for Percent degradation SMARCA4: 16 hours
T1 construct: endogenous in cells; host or cells: VCaP (ATCC CRL-2876)
T1 sequence (P51532 whole entry): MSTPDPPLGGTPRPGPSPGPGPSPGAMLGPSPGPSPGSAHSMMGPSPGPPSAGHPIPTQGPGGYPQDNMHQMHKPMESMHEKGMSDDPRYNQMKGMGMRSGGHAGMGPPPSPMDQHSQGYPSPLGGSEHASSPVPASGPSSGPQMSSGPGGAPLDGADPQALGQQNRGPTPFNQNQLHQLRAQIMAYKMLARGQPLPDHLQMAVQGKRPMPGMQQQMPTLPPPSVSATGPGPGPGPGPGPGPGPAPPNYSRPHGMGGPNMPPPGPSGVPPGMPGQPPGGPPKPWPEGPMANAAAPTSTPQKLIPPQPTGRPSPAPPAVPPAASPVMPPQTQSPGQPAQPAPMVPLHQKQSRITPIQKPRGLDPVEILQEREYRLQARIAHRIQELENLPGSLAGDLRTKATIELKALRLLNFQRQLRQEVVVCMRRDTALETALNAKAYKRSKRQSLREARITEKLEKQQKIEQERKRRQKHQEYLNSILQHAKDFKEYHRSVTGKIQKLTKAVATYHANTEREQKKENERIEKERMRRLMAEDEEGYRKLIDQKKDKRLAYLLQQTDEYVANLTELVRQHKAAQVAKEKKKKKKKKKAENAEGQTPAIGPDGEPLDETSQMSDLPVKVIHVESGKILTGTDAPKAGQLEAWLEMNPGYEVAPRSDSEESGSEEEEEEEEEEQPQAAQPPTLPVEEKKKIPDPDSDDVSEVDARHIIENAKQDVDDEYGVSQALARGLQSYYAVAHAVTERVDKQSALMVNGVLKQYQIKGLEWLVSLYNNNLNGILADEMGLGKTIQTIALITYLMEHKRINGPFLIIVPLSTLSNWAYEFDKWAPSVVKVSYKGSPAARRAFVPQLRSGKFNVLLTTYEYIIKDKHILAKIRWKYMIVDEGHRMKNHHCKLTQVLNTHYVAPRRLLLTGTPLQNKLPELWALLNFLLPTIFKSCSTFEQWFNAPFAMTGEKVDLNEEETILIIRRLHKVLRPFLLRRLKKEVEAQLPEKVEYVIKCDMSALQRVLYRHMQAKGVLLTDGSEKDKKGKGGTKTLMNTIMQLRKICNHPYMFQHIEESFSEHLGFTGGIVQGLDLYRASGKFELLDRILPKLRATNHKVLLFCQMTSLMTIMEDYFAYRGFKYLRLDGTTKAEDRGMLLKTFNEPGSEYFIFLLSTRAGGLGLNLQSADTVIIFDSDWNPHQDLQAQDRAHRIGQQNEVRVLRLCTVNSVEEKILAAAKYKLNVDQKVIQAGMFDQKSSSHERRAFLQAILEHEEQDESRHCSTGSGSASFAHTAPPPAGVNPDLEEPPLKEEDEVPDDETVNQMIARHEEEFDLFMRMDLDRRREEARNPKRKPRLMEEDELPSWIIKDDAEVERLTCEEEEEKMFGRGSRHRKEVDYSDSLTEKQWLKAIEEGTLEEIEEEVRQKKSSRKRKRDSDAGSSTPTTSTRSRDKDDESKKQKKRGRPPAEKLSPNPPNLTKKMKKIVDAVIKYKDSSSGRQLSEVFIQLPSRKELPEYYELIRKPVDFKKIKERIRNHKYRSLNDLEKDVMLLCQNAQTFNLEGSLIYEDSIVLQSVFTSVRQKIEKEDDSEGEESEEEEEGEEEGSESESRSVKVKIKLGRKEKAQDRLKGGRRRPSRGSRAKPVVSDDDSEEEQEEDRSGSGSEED
Method: (§1) Example-P2: Determination of SMARCA2 and SMARCA4 Degradation in VCaP Cells by Western Blot
(§2) VCaP (ATCC CRL-2876) was plated in 6 well plates using complete Dulbecco's Modified Eagle's Medium. On the third day, compounds of present invention were added to cells from 10 mM stocks made in DMSO (Sigma Cat no. D2650). Each compound was tested at 100 nM concentration with DMSO not exceeding final percentage of 0.3 in the cells. Cells were incubated with the compound for 16 hours followed by harvesting with 1×RIPA lysis buffer (Thermo Fischer, catalogue number #89900) containing protease inhibitor cocktail (Sigma catalogue number #P-8340). Equal amount of protein was loaded on SDS PAGE gel for electrophoresis. Western blot was carried out for detection of either SMARCA2 (Cell signalling technologies, catalogue number #11966) or SMARCA4 antibody (Cell signalling technologies, catalogue number #52251). Beta-Tubulin antibody (Cell signalling technologies, catalogue number #86298) was used as loading control. Percentage of SMARCA2 or SMARCA4 degradation was calculated by using formula: […]

[3] = molecular target: T2, SMARCA2 (Homo sapiens, UniProt P51531); assay: SMARCA2 degradation in VCaP cells by Western blot; settings: at 100 nM, 16 hours
T2 construct: endogenous in cells; host or cells: VCaP (ATCC CRL-2876)
T2 sequence (P51531 whole entry): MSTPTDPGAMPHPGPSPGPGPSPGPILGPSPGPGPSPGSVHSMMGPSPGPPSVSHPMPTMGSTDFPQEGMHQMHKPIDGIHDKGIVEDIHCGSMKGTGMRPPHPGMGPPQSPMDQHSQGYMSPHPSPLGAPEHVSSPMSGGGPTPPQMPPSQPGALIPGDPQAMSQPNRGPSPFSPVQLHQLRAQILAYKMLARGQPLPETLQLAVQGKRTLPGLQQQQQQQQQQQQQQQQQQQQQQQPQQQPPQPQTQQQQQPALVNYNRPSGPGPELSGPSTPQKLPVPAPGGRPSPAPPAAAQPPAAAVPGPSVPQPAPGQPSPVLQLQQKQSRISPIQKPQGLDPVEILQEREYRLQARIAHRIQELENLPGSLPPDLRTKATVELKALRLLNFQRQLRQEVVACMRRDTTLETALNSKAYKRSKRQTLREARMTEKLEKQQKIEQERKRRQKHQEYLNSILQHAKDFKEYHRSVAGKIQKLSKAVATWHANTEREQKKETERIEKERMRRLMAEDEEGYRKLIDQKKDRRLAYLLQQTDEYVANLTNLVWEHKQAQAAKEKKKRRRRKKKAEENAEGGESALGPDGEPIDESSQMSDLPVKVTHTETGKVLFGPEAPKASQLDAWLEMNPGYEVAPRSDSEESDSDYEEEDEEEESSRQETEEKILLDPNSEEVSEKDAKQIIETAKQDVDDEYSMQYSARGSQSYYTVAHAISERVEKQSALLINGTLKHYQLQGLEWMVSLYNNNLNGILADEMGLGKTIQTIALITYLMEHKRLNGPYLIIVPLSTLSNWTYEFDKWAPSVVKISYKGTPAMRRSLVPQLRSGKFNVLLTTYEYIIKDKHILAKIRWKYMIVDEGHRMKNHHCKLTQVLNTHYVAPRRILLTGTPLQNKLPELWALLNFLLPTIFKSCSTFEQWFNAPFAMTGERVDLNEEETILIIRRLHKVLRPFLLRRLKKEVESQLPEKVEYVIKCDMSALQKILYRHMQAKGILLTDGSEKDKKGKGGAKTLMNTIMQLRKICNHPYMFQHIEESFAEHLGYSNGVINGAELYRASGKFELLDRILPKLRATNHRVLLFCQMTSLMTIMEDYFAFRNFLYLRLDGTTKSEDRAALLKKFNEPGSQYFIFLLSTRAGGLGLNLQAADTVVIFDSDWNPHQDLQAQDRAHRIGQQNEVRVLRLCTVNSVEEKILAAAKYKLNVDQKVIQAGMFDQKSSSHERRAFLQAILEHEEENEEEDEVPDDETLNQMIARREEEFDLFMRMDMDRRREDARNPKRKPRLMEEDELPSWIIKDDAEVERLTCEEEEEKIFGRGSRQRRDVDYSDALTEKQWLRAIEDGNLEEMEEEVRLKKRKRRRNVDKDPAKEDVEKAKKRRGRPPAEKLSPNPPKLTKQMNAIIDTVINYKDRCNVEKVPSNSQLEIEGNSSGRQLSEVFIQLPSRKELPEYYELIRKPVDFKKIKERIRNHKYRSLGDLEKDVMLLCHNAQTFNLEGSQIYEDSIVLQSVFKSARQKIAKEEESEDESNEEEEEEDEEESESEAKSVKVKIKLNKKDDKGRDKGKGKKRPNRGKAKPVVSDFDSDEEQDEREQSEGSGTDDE
Method: as §1, §2

For Cc1ncsc1-c1ccc([C@H](C)NC(=O)[C@@H]2C[C@@H](O)CN2C(=O)[C@@H](c2cc(-c3ccc(-c4cc(-c5ccccc5O)nnc4N)cc3)no2)C(C)C)cc1 [Compound 6, (2S,4R)-1-((R)-2-(3-(4-(3-amino-6-(2-hydroxyphenyl)pyridazin-4-yl)phenyl)isoxazol-5-yl)-3-methylbutanoyl)-4-hydroxy-N—((S)-1-(4-(4-methylthiazol-5-yl)phenyl)ethyl)pyrrolidine-2-carboxamide], the EC50 [1] was 10 to 100 nM, the Percent SMARCA4 degradation at 0.1 µM [2] was 85% and the “Percent degradation SMARCA2” value [3] was 100%.

In the case of Cc1ncsc1-c1ccc([C@H](C)NC(=O)[C@@H]2C[C@@H](O)CN2C(=O)C(c2cc(OCCOc3ccc(-c4cc(-c5ccccc5O)nnc4N)cc3)no2)C(C)C)cc1 (stereo partly drawn) [Compound 24, (2S,4R)-1-(2-(3-(2-(4-(3-amino-6-(2-hydroxyphenyl)pyridazin-4-yl)phenoxy)ethoxy)isoxazol-5-yl)-3-methylbutanoyl)-4-hydroxy-N—((S)-1-(4-(4-methylthiazol-5-yl)phenyl)ethyl)pyrrolidine-2-carboxamide], the EC50 [1] is reported as under 10 nM, the Percent SMARCA4 degradation at 0.1 µM [2] is reported as 96% and the “Percent degradation SMARCA2” value [3] is reported as 95%.

With Cc1ncsc1-c1ccc([C@H](C)NC(=O)[C@@H]2C[C@@H](O)CN2C(=O)C(C(C)C)n2cc(-c3ccc(-c4cc(-c5ccccc5O)nnc4N)cc3)cn2)cc1 (stereo partly drawn) [Compound 11, (2S,4R)-1-(2-(4-(4-(3-amino-6-(2-hydroxyphenyl)pyridazin-4-yl)phenyl)-1H-pyrazol-1-yl)-3-methylbutanoyl)-4-hydroxy-N—((S)-1-(4-(4-methylthiazol-5-yl)phenyl)ethyl)pyrrolidine-2-carboxamide] the EC50 [1] was 10 to 100 nM, the Percent SMARCA4 degradation at 0.1 µM [2] was 51% and the “Percent degradation SMARCA2” value [3] was 98%.

Cc1ncsc1-c1ccc([C@H](C)NC(=O)[C@@H]2C[C@@H](O)CN2C(=O)C(c2cc(N3CCC(N4CCN(c5ccc(-c6cc(-c7ccccc7O)nnc6N)cc5)CC4)CC3)no2)C(C)C)cc1 (stereo partly drawn) [Compound 59, (2S,4R)-1-(2-(3-(4-(4-(4-(3-amino-6-(2-hydroxyphenyl)pyridazin-4-yl)phenyl)piperazin-1-yl)piperidin-1-yl)isoxazol-5-yl)-3-methylbutanoyl)-4-hydroxy-N—((S)-1-(4-(4-methylthiazol-5-yl)phenyl)ethyl)pyrrolidine-2-carboxamide] gave an EC50 [1] of under 10 nM.

For Cc1ncsc1-c1ccc([C@H](C)NC(=O)[C@@H]2C[C@@H](O)CN2C(=O)[C@@H](NC(=O)CN2CCC(c3ccc(-c4cc(-c5ccccc5O)nnc4N)cc3)CC2)C(C)(C)C)cc1 [Compound 29, (2S,4R)-1-((S)-2-(2-(4-(4-(3-amino-6-(2-hydroxyphenyl)pyridazin-4-yl)phenyl)piperidin-1-yl)acetamido)-3,3-dimethylbutanoyl)-4-hydroxy-N—((S)-1-(4-(4-methylthiazol-5-yl)phenyl)ethyl)pyrrolidine-2-carboxamide], the EC50 [1] was under 10 nM, the Percent SMARCA4 degradation at 0.1 µM [2] was 95% and the “Percent degradation SMARCA2” value [3] was 95%.

Cc1ncsc1-c1ccc([C@H](C)NC(=O)[C@@H]2C[C@@H](O)CN2C(=O)[C@@H](NC(=O)CN2CCC(c3ccc(-c4cc(-c5cc(F)ccc5O)nnc4N)cc3)CC2)C(C)(C)C)cc1 [Compound 31, (2S,4R)-1-((S)-2-(2-(4-(4-(3-amino-6-(5-fluoro-2-hydroxyphenyl)pyridazin-4-yl)phenyl)piperidin-1-yl)acetamido)-3,3-dimethylbutanoyl)-4-hydroxy-N-((S)-1-(4-(4-methylthiazol-5-yl)phenyl)ethyl)pyrrolidine-2-carboxamide] was tested, and the EC50 [1] was 10 to 100 nM, the Percent SMARCA4 degradation at 0.1 µM [2] was 90% and the “Percent degradation SMARCA2” value [3] was 99%.

With Cc1ncsc1-c1ccc([C@H](C)NC(=O)[C@@H]2C[C@@H](O)CN2C(=O)[C@@H](NC(=O)C(C)N2CCC(c3ccc(-c4cc(-c5ccccc5O)nnc4N)cc3)CC2)C(C)(C)C)cc1 (mixture of isomers) [Compound 32, (2S,4R)-1-((2S)-2-(2-(4-(4-(3-amino-6-(2-hydroxyphenyl)pyridazin-4-yl)phenyl)piperidin-1-yl)propanamido)-3,3-dimethylbutanoyl)-4-hydroxy-N-((S)-1-(4-(4-methylthiazol-5-yl)phenyl)ethyl)pyrrolidine-2-carboxamide] the EC50 [1] was over 100 nM, the Percent SMARCA4 degradation at 0.1 µM [2] was 0% and the “Percent degradation SMARCA2” value [3] was 90%.

In the case of Cc1ncsc1-c1ccc([C@H](C)NC(=O)[C@@H]2C[C@@H](O)CN2C(=O)[C@@H](NC(=O)CCCC#Cc2ccc(-c3cc(-c4ccccc4O)nnc3N)cc2)C(C)(C)C)cc1 [Compound 19, (2S,4R)-1-((S)-2-(6-(4-(3-amino-6-(2-hydroxyphenyl)pyridazin-4-yl)phenyl)hex-5-ynamido)-3,3-dimethylbutanoyl)-4-hydroxy-N—((S)-1-(4-(4-methylthiazol-5-yl)phenyl)ethyl)pyrrolidine-2-carboxamide], the EC50 [1] is reported as under 10 nM, the Percent SMARCA4 degradation at 0.1 µM [2] is reported as 96% and the “Percent degradation SMARCA2” value [3] is reported as 96%.

For Cc1ncsc1-c1ccc([C@H](C)NC(=O)[C@@H]2C[C@@H](O)CN2C(=O)[C@@H](NC(=O)CC2CCC(c3ccc(-c4cc(-c5ccccc5O)nnc4N)cc3)CC2)C(C)(C)C)cc1 (single isomer, unassigned) [Compound 44], the EC50 [1] was under 10 nM, the Percent SMARCA4 degradation at 0.1 µM [2] was 89% and the “Percent degradation SMARCA2” value [3] was 98%.

For Cc1ncsc1-c1ccc([C@H](C)NC(=O)[C@@H]2C[C@@H](O)CN2C(=O)[C@@H](NC(=O)COc2ccc(-c3cc(-c4cc(F)ccc4O)nnc3N)cc2)C(C)(C)C)cc1 [Compound 1, (2S,4R)-1-((S)-2-(2-(4-(3-amino-6-(5-fluoro-2-hydroxyphenyl)pyridazin-4-yl)phenoxy)acetamido)-3,3-dimethylbutanoyl)-4-hydroxy-N—((S)-1-(4-(4-methylthiazol-5-yl)phenyl)ethyl)pyrrolidine-2-carboxamide], the EC50 [1] was 10 to 100 nM.

With Cc1ncsc1-c1ccc([C@H](C)NC(=O)[C@@H]2C[C@@H](O)CN2C(=O)C(c2cc(-c3ccc(-c4cc(-c5ccccc5F)nnc4N)cc3)no2)C(C)C)cc1 (stereo partly drawn) [Compound 9, (2S,4R)-1-(2-(3-(4-(3-amino-6-(2-fluorophenyl)pyridazin-4-yl)phenyl)isoxazol-5-yl)-3-methylbutanoyl)-4-hydroxy-N-((S)-1-(4-(4-methylthiazol-5-yl)phenyl)ethyl)pyrrolidine-2-carboxamide] the Percent SMARCA4 degradation at 0.1 µM [2] was 62% and the “Percent degradation SMARCA2” value [3] was 30%.

Cc1ncsc1-c1ccc([C@H](C)NC(=O)[C@@H]2C[C@@H](O)CN2C(=O)C(c2cc(-c3ccc(-c4cc(-c5ccc[nH]c5=O)nnc4N)cc3)no2)C(C)C)cc1 (stereo partly drawn) [Compound 17] was tested, and the “Percent degradation SMARCA4” value [2] was 35% and the “Percent degradation SMARCA2” value [3] was 7%.

Cc1ncsc1-c1ccc([C@H](C)NC(=O)[C@@H]2C[C@@H](O)CN2C(=O)C(N2CCC(N3CCN(c4ccc(-c5cc(-c6ccccc6O)nnc5N)cc4)CC3)CC2)C(C)(C)C)cc1 (stereo partly drawn) [Compound 60, (2S,4R)-1-(2-(4-(4-(4-(3-amino-6-(2-hydroxyphenyl)pyridazin-4-yl)phenyl)piperazin-1-yl)piperidin-1-yl)-3,3-dimethylbutanoyl)-4-hydroxy-N—((S)-1-(4-(4-methylthiazol-5-yl)phenyl)ethyl)pyrrolidine-2-carboxamide] was tested, and the EC50 [1] was over 100 nM and the inhibition at 1 µM ([1]; at 1 μM, read-out: % inhibition of proliferation) was 20%.

For Cc1ncsc1-c1ccc([C@H](C)NC(=O)[C@@H]2C[C@@H](O)CN2C(=O)[C@@H](NC(=O)CC2CCC(c3ccc(-c4cc(-c5ccccc5O)nnc4N)cc3)CC2)C(C)(C)C)cc1 (single isomer, unassigned) [Compound 45], the “Percent degradation SMARCA4” value [2] was 92% and the “Percent degradation SMARCA2” value [3] was 97%.

For Cc1ncsc1-c1ccc([C@H](C)NC(=O)[C@@H]2C[C@@H](O)CN2C(=O)[C@@H](NC(=O)CCCC#Cc2ccc(-c3cc(-c4cc(F)ccc4O)nnc3N)cc2)C(C)(C)C)cc1 [Compound 23, (2S,4R)-1-((S)-2-(6-(4-(3-amino-6-(5-fluoro-2-hydroxyphenyl)pyridazin-4-yl)phenyl)hex-5-ynamido)-3,3-dimethylbutanoyl)-4-hydroxy-N-((S)-1-(4-(4-methylthiazol-5-yl)phenyl)ethyl)pyrrolidine-2-carboxamide], the Percent SMARCA4 degradation at 0.1 µM [2] was 49% and the “Percent degradation SMARCA2” value [3] was 82%.
